Common to all, as to assay: inhibition of tumour cell growth, NCI panel, 48 h
The test system of assay [1] is A549 NSCLC.
For assay [2], the system named is COLO 205 colon.
Assay [3] relates to HCT-15 colon.
Assay [4] relates to HL-60(TB) leukemia.
Assay [5] has as its system HOP-62 NSCLC.
The subject of assay [6] is HOP-92 NSCLC.
For assay [7], the system named is HT29 colon.
For assay [8], the system named is IGROV1 ovarian.
Assay [9] relates to K-562 leukemia.
For assay [10], the system named is MDA-MB-435.
Assay [11] concerns MOLT-4 leukemia.
The test system of assay [12] is NCI-H226 lung.
Assay [13] has as its system SN12C renal.
Assay [14] relates to SNB-19 CNS.
In assay [15] the test system is SW-620 colon.
The subject of assay [16] is T-47D breast.
Assay [17] has as its system UACC-257 melanoma.
The test system of assay [18] is UO-31 renal.
Assay [19] deals with MDA-N.
Assay [20] concerns NCI-H460 lung.

Structures are written as SMILES.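 Compound exposure: 48 hours, 5 concentrations, 96-well plates. Definition used: TGI = concentration required for complete inhibition of growth.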

For the molecule `Cc1ccc2oc3c(c(Br)c(Br)n3C)c(=O)c2c1`, the TGI in assay [1] is 51.5 µM; in assay [2], greater than 100 µM; in assay [3] it was greater than 100 µM; in [4], greater than 100 µM; in assay [5], 33.3 µM; in [6], 38.1 µM. The TGI in [7] is greater than 100 µM; in [8] it was greater than 100 µM; in assay [9], greater than 100 µM; in assay [10], greater than 100 µM; in assay [11] it was greater than 100 µM; in assay [12], 32.9 µM. For the same molecule, the TGI in assay [13] was 47 µM; in assay [14] it was 36 µM; in assay [15], greater than 100 µM; in assay [16], greater than 100 µM; in [17], greater than 100 µM; in assay [18] it was 27.5 µM.

`CSCCCNC(=O)c1csc(-c2csc(CCNC(=O)CNC(=O)CNC(=O)OC(C)(C)C)n2)n1`: the TGI in assay [1], in assay [2], in [3], in assay [4], in assay [5] and in [6] was greater than 100 µM in each case. Besides, the TGI in [7], in assay [8], in assay [9], in assay [10], in [19] and in [11] was greater than 100 µM in each case. The TGI in assay [12], in [20], in [13], in assay [14], in assay [15] and in assay [17] was greater than 100 µM each time. Further, the TGI in assay [18] was greater than 100 µM.

Take `CN1C(=O)CC2CCC(=O)N2c2cccnc21` (stereo unspecified): the TGI in [1], in assay [2], in [3], in assay [4], in [5] and in assay [7] was greater than 100 µM each time. For the same molecule, the TGI in [8], in assay [9], in [10], in [19], in [12] and in [20] was greater than 100 µM each time. The TGI in assay [13], in assay [14], in assay [15], in assay [16], in assay [17] and in assay [18] was greater than 100 µM throughout.

Turning to `NC(=Nc1cccc(Cl)c1)c1ccccc1N`, the TGI in assay [1], in assay [2], in [3], in assay [4], in assay [5] and in assay [7] was greater than 100 µM in each case. Also, the TGI in assay [8], in assay [9], in assay [10], in [19], in assay [11] and in assay [12] was greater than 100 µM in each case. The TGI in [20], in [14], in assay [15], in assay [17] and in [18] was greater than 100 µM in each case.

Consider `COC1CCC(=O)N1CN(C(C)=O)c1ccc(C)cc1` (stereo unspecified), for which the TGI in assay [1], in assay [2], in assay [3], in assay [5], in assay [7] and in [9] was greater than 100 µM throughout. Also, the TGI in assay [10], in assay [19], in assay [11], in assay [12], in [20] and in assay [13] was greater than 100 µM each time. The TGI in [14], in assay [15], in assay [16], in assay [17] and in assay [18] was greater than 100 µM each time.

`CC1(C)CCCCCC(C)(CCCO)C1=O` (stereo unspecified): the TGI in [1], in assay [2], in assay [3], in [4], in assay [5] and in assay [6] was greater than 100 µM each time. The TGI in assay [7], in assay [8], in [9], in [10], in assay [11] and in assay [12] was greater than 100 µM throughout. Further, the TGI in assay [20], in assay [13], in assay [14], in [15], in assay [16] and in assay [17] was greater than 100 µM throughout. This molecule had a TGI in [18] greater than 100 µM.

For the molecule `S=C(N1CCN(c2cccc(Cl)c2)CC1)N1CCN(c2cccc(Cl)c2)CC1`, the TGI in assay [1] is greater than 100 µM; in assay [2] it was 68 µM; in [3], greater than 100 µM; in assay [5], greater than 100 µM; in [7], greater than 100 µM; in [8], greater than 100 µM. Besides, the TGI in assay [9] was greater than 100 µM; in [10] it was greater than 100 µM; in assay [19], greater than 100 µM; in [11], 64.1 µM; in assay [12], 88.4 µM; in assay [14], greater than 100 µM. For the same molecule, the TGI in assay [15] was greater than 100 µM; in assay [16], greater than 100 µM; in assay [17], greater than 100 µM; in [18], 86.1 µM.

Turning to `CCC(O)c1ccc(N=Cc2ccccc2O)cc1` (stereo unspecified), the TGI in [1], in assay [2], in assay [3], in assay [4], in [5] and in [6] was greater than 100 µM in each case. Further, the TGI in assay [7], in assay [8], in assay [9], in [10], in assay [11] and in assay [12] was greater than 100 µM throughout. The TGI in [20], in assay [14], in [15], in [16] and in assay [18] was greater than 100 µM in each case.

On to `CC1(C)OC[C@@H](O)[C@H](Br)CO1`, for which the TGI in [2], in assay [3], in assay [4], in assay [5], in assay [7] and in assay [9] was greater than 100 µM in each case. Also, the TGI in assay [10], in [19], in assay [11], in [12], in assay [20] and in [13] was greater than 100 µM in each case. The TGI in assay [14], in assay [15], in [16], in assay [17] and in assay [18] was greater than 100 µM each time.

Regarding `c1ccc2c(c1)ccn1ccc3c4ccccc4nc-3c21`, the TGI is 1.57 µM in assay [1]; 1.13 µM in assay [2]; 1.36 µM in assay [4]; 1.85 µM in assay [5]; 4.44 µM in assay [6]; 1.58 µM in assay [7]. The TGI in assay [8] came to 2.8 µM; in assay [9], 0.567 µM; in assay [10], 1.65 µM; in [11], 0.415 µM; in [12] it was 1.81 µM; in assay [13], 2.1 µM. The TGI is 3.14 µM in assay [14]; 2.34 µM in assay [15]; 3.51 µM in [16]; 2.92 µM in assay [17]; 2.24 µM in assay [18].

With `COc1ccc2nc3n(c2c1)C(=O)c1ccccc1-3`, the TGI in assay [1], in assay [2], in assay [3], in assay [4], in assay [5] and in assay [6] was greater than 100 µM throughout. In addition, the TGI in assay [7], in [8], in assay [9], in assay [19], in assay [11] and in assay [12] was greater than 100 µM in each case. Moreover, the TGI in assay [20], in [13], in assay [14], in assay [15], in assay [17] and in assay [18] was greater than 100 µM each time.

As to `CC/C=C/C[C@H](O)[C@H]1C[C@H]2O[C@H](CC(=O)OC)C[C@H]2O1`, the TGI in assay [1], in assay [2], in assay [3], in assay [4], in assay [5] and in [7] was greater than 100 µM throughout. In addition, the TGI in assay [8], in assay [9], in assay [10], in assay [19], in assay [11] and in assay [12] was greater than 100 µM throughout. For the same molecule, the TGI in assay [20], in assay [13], in assay [14], in assay [15], in [16] and in [18] was greater than 100 µM in each case.

On to `COc1nc2c(c(=O)n1C)N=C(c1ccc(Cl)cc1)CC(c1ccccc1)N2` (stereo unspecified), for which the TGI in assay [1] was greater than 100 µM; in assay [2] it was greater than 100 µM; in [3], 30.4 µM; in assay [5] it was greater than 100 µM; in assay [6], greater than 100 µM; in assay [7], 47.4 µM. Besides, the TGI in assay [8] is 51.5 µM; in assay [9], 54.2 µM; in [10], greater than 100 µM; in assay [19] it was 37.8 µM; in assay [11], 49.6 µM; in [12], 45.6 µM. For the same molecule, the TGI in assay [20] is 28.1 µM; in assay [13], 54.4 µM; in assay [14] it was greater than 100 µM; in [15], greater than 100 µM; in assay [17] it was 67.9 µM; in assay [18] it was greater than 100 µM.

On to `CCCC1(CCC)c2cc(/C=N\O)ccc2-c2ccc(-c3ccc(C(C)(C)C)cc3)cc21`, for which the TGI in assay [1] is greater than 100 µM; in assay [2], greater than 100 µM; in assay [3] it was greater than 100 µM; in [4], 51.7 µM; in [5], greater than 100 µM; in assay [6] it was greater than 100 µM. The TGI is greater than 100 µM in assay [7]; greater than 100 µM in assay [8]; greater than 100 µM in assay [9]; greater than 100 µM in [19]; 60.9 µM in [11]; greater than 100 µM in assay [20]. Further, the TGI in assay [13] was 53.5 µM; in [14] it was greater than 100 µM; in assay [15] it was greater than 100 µM; in assay [16], greater than 100 µM; in assay [17], greater than 100 µM; in assay [18] it was greater than 100 µM.

On to `NC1Cc2ccccc2OC1=O` (stereo unspecified), for which the TGI in assay [1], in assay [2], in assay [3], in assay [5], in assay [7] and in [8] was greater than 100 µM each time. Moreover, the TGI in [9], in assay [10], in assay [11], in [12], in assay [20] and in assay [13] was greater than 100 µM each time. Moreover, the TGI in [14], in assay [15], in assay [16], in [17] and in assay [18] was greater than 100 µM each time.

Consider `CC(=O)N(O)Cc1ccccc1`, for which the TGI in assay [1], in assay [2], in assay [3], in [4], in assay [5] and in [6] was greater than 100 µM throughout. The TGI in assay [7], in assay [8], in assay [9], in assay [11], in assay [12] and in assay [20] was greater than 100 µM each time. Also, the TGI in [13], in assay [14], in assay [15], in assay [17] and in assay [18] was greater than 100 µM in each case.

For the origin of these results see PubChem BioAssay (NCI).
